Data reported in ChEMBL document CHEMBL1128008, “Synthesis of etoposide phosphate, BMY-40481: A water-soluble clinically active prodrug of etoposide” (Bioorg Med Chem Lett, 1994).
Activity calls are given as the source filed them. No cut-off for these calls is given here.

Assays:
Mus musculus = experiment: Antitumor activity administered ip, po was determined in murine model; Active; format: functional, organism-based
Homo sapiens = experiment: Antitumor activity administered ip was determined in human model; Active; format: functional, organism-based
P388 [1] = experiment: Inhibitory activity administered was determined against ic P388 leukemia cells; Active; format: functional; details: Mus musculus
[2] = Plasma half life in human; format: ADME, cell-free
B16 = experiment: Inhibitory activity administered was determined against sc B16 melanoma cells; Active; format: functional, organism-based; details: Mus musculus
L1210 = experiment: Inhibitory activity administered was determined against ic L1210 leukemia cells; Active; format: functional; details: Mus musculus
P388 [3] = experiment: Inhibitory activity administered iv was determined against implanted P388 leukemia cells; Active; format: functional, organism-based; details: Mus musculus
[4] = Plasma half life in monkey; format: ADME; details: cercopithecidae
[5] = Plasma half life in dog; format: ADME, organism-based, Canis lupus familiaris
[6] = Plasma half life in mouse; format: ADME, organism-based

| SMILES | Activity (Mus musculus) | Activity (Homo sapiens) | Activity (P388 [1]) | half-life [2] | Activity (B16) | Activity (L1210) | Activity (P388 [3]) | half-life [4] | half-life [5] | half-life [6] |
| --- | --- | --- | --- | --- | --- | --- | --- | --- | --- | --- |
| COc1cc(C2c3cc4c(cc3[C@@H](O[C@@H]3O[C@@H]5CO[C@@H](C)O[C@H]5[C@H](O)[C@H]3O)[C@H]3COC(=O)[C@H]23)OCO4)cc(OC)c1O (single isomer, unassigned) | Active | Active | – | – | – | – | – | – | – | – |
| COc1cc([C@H]2c3cc4c(cc3[C@@H](O[C@@H]3O[C@H]5CO[C@@H](C)O[C@H]5[C@H](O)[C@@H]3O)[C@H]3COC(=O)[C@H]23)OCO4)cc(OC)c1OP(=O)([O-])[O-].[Na+].[Na+] | – | Active | Active | 45 min | Active | Active | Active | 39 min | 124 min | 39 min |
